Molecular target: T1, Pho81 (Pho81SPX-GFP; CnPho81) (Cryptococcus neoformans, UniProt J9VLD1)
T1 construct: gene CNAG_02541; full-length Pho81 (N-terminal SPX, ankyrin repeat and GDE domains) with C-terminal GFP, expressed from the GDE2 promoter in C. neoformans H99; whole cell lysate, endogenous Pho80/Pho85/Pcl6/7 present
Assay: affinity capture from cell lysate on 5-PCP-IP5-conjugated resin, anti-GFP Western blot
Assay type: biochemical
Details: binds; resin-immobilised analog of 5-PP-IP5; Pi-conjugated resin as control; 50 mM Tris pH 7.5, 150 mM NaCl, 1 mM EDTA, 4 °C, 2 h; SPX domain lysine surface cluster

## O=P(O)(O)CP(=O)(O)O[C@H]1[C@H](OP(=O)(O)O)[C@@H](OP(=O)(O)O)[C@@H](OP(=O)(O)O)[C@@H](OP(=O)(O)O)[C@@H]1OP(=O)(O)O [5-PCP-IP5]
  affinity capture from cell lysate on 5-PCP-IP5-conjugated resin, anti-GFP Wester: native Pho81 binds to the 5-PCP-IP5, but not to the Pi, resin

Reference: publication PMC7587432, “IP7-SPX Domain Interaction Controls Fungal Virulence by Stabilizing Phosphate Signaling Machinery” (mBio, 2020)
